In US5470873A, “Diabetes prevention and treatment using gamma-pyrones” (University Technologies International, Inc., priority 1994, dated 1995):

What was measured:
[1] = Blood glucose levels in GK rats (NIDDM model), glucose tolerance test; format: in vivo
Experimental: To see whether DPD, alone or in combination with other modalities, had any effect on the control of blood glucose levels, GK rats were treated daily from 4 to 14 weeks of age with one of the following: At 14 weeks of age, glucose tolerance tests were performed by intraperitoneal injection of 2 mg glucose/gm body weight. Blood glucose levels were determined 60 minutes later using methods previously described^64-67. Rats receiving DPD alone were intubated daily with a 1.18 % (w/v) solution of DPD in PBS. At 4 weeks of age, rats received 0.5 ml of the 1.18% solution of DPD. This was increased by 0.1 ml/week so that rats at 14 weeks of age received 1.5 ml of the 1.18% solution of DPD. Control rats received the same volume of PBS only. Rats receiving OSA alone were intubated daily with an aqueous extract of OSA. The extract was prepared by adding 10% dried powdered OSA plant to boiling water, keeping the mixture at the boiling point in a sealed container for 3-4 hours, removing the supernatant, then cooling it for use in intubating the GK rats. This supernatant will be referred to as 10% OSA extract. At 4 weeks of age, rats received 0.5 ml of the 10% OSA extract. This was increased by about 0.15 ml/week so that rats at 14 weeks of age received 2.0 ml of the 10% OSA extract. Control rats received the same volume of PBS. […]

[2] = Pancreatic insulin content (immunoreactive insulin, radioimmunoassay) in NOD mice; format: in vivo; conditions: NOD mice
Experimental: Insulin was extracted from the pancreas of non-obese diabetic (NOD) mouse by known methods ^33,34. Briefly, deep frozen pancreatic tissue (50% of each pancreas) was placed into phosphate buffered saline (PBS) and then extraction solution A (380 ml absolute alcohol, 20 ml H2 O, 8 ml concentrated HCl and some drops of alcoholic phenol red) was added. This mixture was homogenized with polytron type PT 10-20-[…] in glass tubes (15×125 mm) for 30 seconds in position 5. The homogenized material in the tubes was incubated at 4° C. for 10 hours. At the end of the incubation period, the homogenized material was centrifuged at 800 g for 5 minutes for clarification. The supernatant was saved. The pellet was re-extracted with 1 ml of extraction solution B (356 ml absolute alcohol, 124 ml H2 O and 7.5 ml HCl). The pellet in extraction solution B was incubated for 4 hours at 4° C. and then homogenized with a polytron as described above. The homogenized material was centrifuged at 800 g for 5 minutes. The supernatant was pooled with the supernatant from the first extraction. The pooled supernatant was neutralized with concentrated NH40 H (about 10 μl ) until the phenol red turned to purple. The neutralized supernatant was precipitated at 4° C. and then centrifuged at 800 g for 5 min. The supernatant, which contains insulin, was used for the measurement of insulin by radioimmunoassay. The concentration of immunoreactive insulin (IRI) in the pancreas from DPD-treated and untreated NOD mice was measured by radioimmunoassay techniques ^42-44 using mouse insulin as a standard. Briefly, the extracted samples from NOD mice were mixed with […], and anti-insulin antibody. The mixed materials were incubated for 2 hours at room temperature. At the end of the incubation period, anti-guinea pig IgG raised in sheep was added and the mixture was incubated for 30 minutes at room temperature. At the end of the incubation, the samples were centrifuged at 1500 g for 10 minutes. The supernatant was completely removed. The radioactivity of the pellets was measured. The percent of activity was determined by the following formula: [formula] On the basis of % activity in standards, a standard curve was constructed. The concentration of each unknown sample from maltol-treated or untreated NOD pancreas was read on the basis of the standard curve. […] The maltol-treated mice have insulin levels that are similar to the non-diabetic, untreated animals. About 75% of the maltol-treated mice have insulin levels over 80 μg/g pancreas and about 25% have insulin levels between 55-75 μg/g pancreas.

Cc1occc(=O)c1O [DPD, maltol]
Blood Glucose ([1]; DPD 1.18% (w/v) in PBS oral daily, 4 to 14 weeks of age, 60 minutes after i.p. 2 mg glucose/gm, PBS control 389 ± 23): 349 ± 42 mg/dL | Effect on control of blood glucose levels (in words) ([1]; GK rats): some reduction of blood glucose levels | Pancreatic insulin / protection from beta cell destruction (in words) [2]: prevents depression of pancreatic insulin levels
